Data: PMC7356940, “Comparison between Colistin Sulfate Dry Powder and Solution for Pulmonary Delivery” (Pharmaceutics, 2020)
Structures can show the parent of a compound that is named as a salt. Where a SMILES comes first, the peptide text is derived from it. Bridges are numbered along the chain shown (N, C = ends). [ ]: non-standard residue; d: D form. The star is where a group is joined. X1 = CC[C@H](C)CCCCC(=O)*; Dab = NCC[C@H](N)C(=O)O

Columns and labels:
[1] = cited from earlier work
Excerpt: Due to its low permeability across the lung–blood barrier, colistin methanesulfonate (CMS) is one of only four antibiotics currently used to treat Pseudomonas aeruginosa lung infections by inhalation. CMS is an anionic prodrug of colistin (COLI), which is a cationic lipopeptide mix composed mainly of two molecules: colistin A and B. Inhaled COLI therapy is almost always conducted by means of nebulization of CMS instead of the cationic COLI since the use of the latter can lead to more side effects, such as bronchoconstriction, throat irritation, and cough.

[2] = system: P. aeruginosa; details: cited from earlier work
Excerpt: However, CMS is not an optimal p ...

[3] = Plasma and ELF pharmacokinetics after intratracheal administration, simultaneous PK modeling; details: male, Sprague–Dawley, rat, in vivo, rats, 0.35 mg·kg^−1, whatever the formulation used
Experimental: In vivo experiments were undertaken in compliance with EC Directive 2010/63/EU after agreement by a local ethics committee. Male Sprague–Dawley rats (n = 68) from Janvier Laboratories (Le Genest-St.-Isle, France) with weights of 324 ± 24 g (mean ± SD) were used. Animals were acclimatized for 5 days prior to experiments. They always had free access to food and water.
The target COLI dose delivered was 0.35 mg kg^−1 (base form). This dose was previously used in our lab to investigate the pharmacokinetic properties of colistin following intratracheal administration of colistin sulfate solution in rats. […] The insufflator was weighed with a 0.01 mg accuracy scale (Sartorius KB BA100) before and after insufflation to determine the exact amount of powder delivered, and the dose of colistin administered was calculated based on the animal’s weight. […]
Bronchoalveolar lavage fluid (BALF) collection was performed according to methods previously described. […] COLI and urea concentrations were determined in both plasma and BALF. […] Therefore, the COLI concentration in ELF(CELF) was calculated using Equation 1 from measured COLI concentrations in BALF (CBAL) by using urea as a marker of dilution. CELF = CBAL (Ureaplasma/UreaBAL)(1) where UreaBAL and Ureaplasma correspond to the concentrations of urea determined in BALF and plasma. […]

[4] = Apical-to-basolateral COLI transport across Calu-3 monolayers; format: in vitro ADME; details: human; Calu-3, air-interface 15 days, apical-to-basolateral, COLI 100 mg/L (COLI or dissolved INU-COLI particles), HBSS/10 mM HEPES pH 7.4, 6 h, LC-MS/MS; read-out: COLI apparent permeability (Papp)
Experimental: (§1) Calu-3 cells were purchased from the American Type Culture Collection (Manassas, VA, USA). The cells were cultured in DMEM/Ham’s F12 (1/1) (PanBiotech) supplemented with L-glutamine (2 mM), fetal calf serum (10% v/v), and incubated at 37 °C under 90–95% of RH and 5% v/v of CO2 in the air.
(§2) Samples were taken after 60 min at 37 °C.
(§3) The determination of COLI plasma concentrations was performed based on a validated LC-MS/MS method previously described. The chromatography was performed on an Alliance 2695 system (Waters, France) with a Jupiter 300-Å column (5.0 µm, 50 mm, 2.0-mm i.d.; Waters, St.-Quentin en Yvelines, France) and a mobile phase (flow rate 0.2 mL/min) consisting of 0.1% (v/v) formic acid in acetonitrile–0.1% formic acid in water (25:75 v/v). The mass spectrometer Micromass Quattro microAPI (Waters, France) was used in the positive/ion mode. The calibration standard curve was prepared with seven samples in rat plasma with COLI base concentrations ranging between 0.0097 and 10 µg·mL^−1. For analysis of COLI in BALF and in the medium used for the COLI transport experiments, 150 µL of sample was mixed with 100 µL of plasma and analyzed as for plasma.

[5] = system: Calu-3 cell epithelium model; assay: as above; format: in vitro ADME
Experimental: as §1, §2, §3

[6] = system: Calu-3 cell epithelium model; details: cited from earlier work
Excerpt: COLI Papp changed as a function of COLI concentration in the Calu-3 cell monolayer apical side (Figure 5). […] This value was consistent with a previous determination (0.42 × 10^−7 cm·s^−1).

[7] = previous studies; cited from earlier work
Experimental: The day before the experiment polyethylene catheters were implanted into the femoral artery of anesthetized rats. […] Accordingly, arterial blood samples were collected at 0, 0.25, 0.5, 1, 2, 3, and 4 h after pulmonary administration. Plasma was obtained and frozen at −80 °C.

[8] = fixed in the PK model; cited from earlier work
Excerpt: Plasma and ELF COLI concentrations versus time were simultaneously analyzed by a nonlinear mixed-effects method with S-ADAPT software (v 1.52, Biomedical Simulations Resource (BMSR), Los Angeles, USA) with S-ADAPT TRAN translator [19]. The structural model (Appendix C, Figure A3) used for data analysis has been developed in a previous study to fit plasma and ELF COLI concentrations after COLI intravenous administrations and solution nebulization to rats. Briefly, the systemic pharmacokinetics of COLI were described by a two-compartment model, characterized by a central compartment (Vc ...

Compound	fraction of the CMS dose converted into COLI in the lung ([1]; human, in vivo)	activity against P. aeruginosa [2]	Cmax [3]	Tmax [3]	Papp A→B at 6 h, 100 mg/L [4]	fold increase in COLI Papp ([5]; Calu-3, COLI concentration changed from 100 to 4000 mg/L)	fold increase in COLI Papp ([5]; Calu-3 A-B, 6 h, COLI concentration increased to 1000 mg/L (from 100 mg/L))	additional fold increase in COLI Papp ([5]; Calu-3 A-B, 6 h, further increase in COLI concentration to 4000 mg/L (from 1000 mg/L))	COLI Papp, previous determination [6]	plasma COLI half-life [7]	COLI unbound plasma fraction [8]	COLI concentrations measured in the ELF ([1]; patients, six hours after inhalation of nebulized CMS solutions)
colistin methanesulfonate [CMS]	1.4 % (w/w)	inactive	–	–	–	–	–	–	–	–	–	–
CC[C@H](C)CCCCC(=O)N[C@@H](CCN)C(=O)N[C@H](C(=O)N[C@@H](CCN)C(=O)N[C@H]1CCNC(=O)[C@H]([C@@H](C)O)NC(=O)[C@H](CCN)NC(=O)[C@H](CCN)NC(=O)[C@H](CC(C)C)NC(=O)[C@@H](CC(C)C)NC(=O)[C@H](CCN)NC1=O)[C@@H](C)O [COLI, Colistin sulfate salt] (X1-[Dab]T[Dab][Dab][Dab][dL]L[Dab][Dab]T; lactam 4-C)	–	–	330 ng/mL	30 min	0.043 ± 0.011 ×10⁻⁶ cm/s	10 fold	4 fold	2.5 fold	0.42 10^−7 cm·s^−1	30 to 40 min	45%	greater than 1000 mg/L
